# Reference: patent US11497819B2, “PSMA ligands for imaging and endoradiotherapy” (priority 2017, dated 2022)
# Key:
# HSA = molecular target: T1, HSA (Homo sapiens, UniProt P02768); assay: HSA binding on Chiralpak HSA column; assay type: in vitro ADME; conditions: after logarithmic plotting and calibration (n = 1)
# T1 construct: purchased Daicel Chemical Industries / Chiral Technologies Europe (Illkirch, France)
# Protocol: HSA binding experiments were performed as previously described. […] For each run, 10 μL of the solution containing the inhibitor was injected into the RP-HPLC system and the retention time measured. […] Non-linear regression was established with OriginPro 2016G.
# PSMA = molecular target: T2, PSMA (Homo sapiens, UniProt Q04609); assay: Competitive binding assay (IC50) on LNCaP cells with ([^125I]I-BA)KuE as radioligand; conditions: LNCaP cells 1.5*10^5 cells/well, 1 h, 4° C., HBSS + 1% BSA, radioligand ([^125I]I-BA)KuE; mean ± SD (n = 3)
# T2 construct: host or cells: LNCaP cells
# T2 sequence (Q04609 whole entry): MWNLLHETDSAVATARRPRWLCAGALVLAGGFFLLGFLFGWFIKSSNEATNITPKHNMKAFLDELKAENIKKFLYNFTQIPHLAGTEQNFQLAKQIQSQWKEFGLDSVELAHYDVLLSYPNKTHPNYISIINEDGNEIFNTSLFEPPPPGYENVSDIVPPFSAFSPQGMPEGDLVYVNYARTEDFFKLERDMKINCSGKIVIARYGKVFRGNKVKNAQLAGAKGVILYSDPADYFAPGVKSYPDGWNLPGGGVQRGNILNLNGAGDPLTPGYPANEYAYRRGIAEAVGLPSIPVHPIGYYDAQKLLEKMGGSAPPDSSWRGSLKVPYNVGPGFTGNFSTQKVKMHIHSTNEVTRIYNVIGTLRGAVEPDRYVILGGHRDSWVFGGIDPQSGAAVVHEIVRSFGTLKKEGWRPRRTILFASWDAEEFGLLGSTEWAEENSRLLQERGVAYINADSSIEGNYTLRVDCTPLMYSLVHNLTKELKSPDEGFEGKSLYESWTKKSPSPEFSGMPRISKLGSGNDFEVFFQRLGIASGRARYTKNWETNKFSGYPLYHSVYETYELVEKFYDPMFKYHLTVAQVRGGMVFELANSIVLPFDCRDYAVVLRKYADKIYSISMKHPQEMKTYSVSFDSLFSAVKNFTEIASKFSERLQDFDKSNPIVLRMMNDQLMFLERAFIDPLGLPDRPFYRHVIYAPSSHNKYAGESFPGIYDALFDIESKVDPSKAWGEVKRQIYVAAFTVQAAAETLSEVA
# Protocol: One day (24 h±2 h) prior to all experiments with LNCaP cells, the cultivated cells were harvested using a mixture of trypsin/ethylendiaminetetraacetate (0.05%/0.02%) and PBS and centrifuged. After centrifugation, the supernatant was disposed and the cell pellet resuspended in culture medium. Afterwards, cells were counted with a hemocytometer (Neubauer) and seeded in 24-well plates.
# After removal of the culture medium, the cells were treated once with HBSS (500 μL, Hank's balanced salt solution, Biochrom, Berlin, Germany, with addition of 1% BSA) and left 15 min on ice for equilibration in HBSS (200 μL, 1% BSA). […] All experiments were performed at least three times for each concentration. After 60 min incubation on ice, the experiment was terminated by removal of the medium and consecutive rinsing with HBSS (200 μL). The media of both steps were combined in one fraction and represent the amount of free radioligand. Afterwards, the cells were lysed with NaOH (250 μL, 1.0 m) and united with the HBSS (200 μL) of the following washing step. Quantification of bound and free radioligand was accomplished in a γ-counter.
# LNCaP cells = assay: Internalization into LNCaP cells, relative cellular uptake to ([^125I]I-BA)KuE; assay type: cell-based; conditions: c = 1.0 nM ^177Lu-labeled inhibitor, 37° C., 60 min, corrected for non-specific binding (10 μM 2-PMPA), mean ± SD (n = 3)
# T1 sequence (P02768 25-609): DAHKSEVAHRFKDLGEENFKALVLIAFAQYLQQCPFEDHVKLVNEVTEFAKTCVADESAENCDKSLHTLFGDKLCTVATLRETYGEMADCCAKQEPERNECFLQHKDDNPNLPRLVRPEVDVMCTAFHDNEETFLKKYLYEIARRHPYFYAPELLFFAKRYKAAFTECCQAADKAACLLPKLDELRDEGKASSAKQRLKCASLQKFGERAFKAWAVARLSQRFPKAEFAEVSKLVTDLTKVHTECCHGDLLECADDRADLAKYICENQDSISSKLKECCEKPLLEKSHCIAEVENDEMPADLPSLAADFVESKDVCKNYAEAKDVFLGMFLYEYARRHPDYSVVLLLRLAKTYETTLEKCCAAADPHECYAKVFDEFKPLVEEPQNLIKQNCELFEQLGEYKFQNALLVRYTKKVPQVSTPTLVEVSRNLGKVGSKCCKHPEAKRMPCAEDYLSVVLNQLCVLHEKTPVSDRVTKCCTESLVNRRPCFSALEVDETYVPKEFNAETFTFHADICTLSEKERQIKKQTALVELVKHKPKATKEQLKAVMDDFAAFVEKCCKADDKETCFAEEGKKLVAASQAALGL
structure (smiles),measurement,setting,value
"O=C(O)CC[C@H](NC(=O)N[C@@H](CCCCNC(=O)[C@H](Cc1ccc2ccccc2c1)NC(=O)[C@H]1CC[C@H](CNC(=O)CN2CCN(CC(=O)O)CCN(CC(=O)O)CCN(CC(=O)O)CC2)CC1)C(=O)O)C(=O)O [PSMA-617, reference compound]",HSA (albumin binding),HSA,74.7%
same,IC50,PSMA,3.8 ± 1.7 nM
same,Internalization,LNCaP cells,160.1 ± 1.5%
